Measurements as given in patent US10519125B2, “Flavagline derivatives” (PIERRE FABRE MEDICAMENT, priority 2014, dated 2019).
Read-outs that look alike come from different tables or passages of the source.

Assays:
[1] = test system: HCT116 line (human colon cancer cell line); experiment: Antiproliferative (cytotoxic) activity on HCT116 line, ATPLite cell viability, 72 hours; format: cell-based; conditions: read-out: HCT116 (EC50)
Method: 2.1. Antiproliferative Activity of the Compounds According to the Invention (IC50 in M)
Culture of Lines and Measurement of Cell Viability:
The HCT116 line (ATCC, CCL-247) derived from colon cancer was cultured in MEM (Minimum Essential Medium Eagle) supplemented with 2 mM L-glutamine (Sigma, G7513), 5% fetal calf serum (Sigma, F7524) and antibiotics (Sigma, A59-55). The protocol for determining cytotoxic activity consists in seeding cells on 96-well plates (Perkin Elmer, 6005668) at a density of 1500 cells per well. After 24 hours of incubation, the test compound is applied in each well, using serial dilutions in the solvent dimethylsulfoxide (DMSO) (Sigma, D8418), from 10 mM stock solutions in 100% DMSO. Each dilution was added to the cells 24 hours after seeding. Under these conditions, the final solvent concentration is 0.1% DMSO. A reading of cell proliferation was carried out 72 hours after addition of the products with the ATPLite™ kit (Perkin Elmer, 6016947) and according to the manufacturer's recommendations. The analysis of the proliferation results was carried out by comparison with conditions where only the carrier solvent (culture medium, 0.1% DMSO) was added to the cells. The dose-response curves obtained were analyzed using the PRISM 4.03 software (GraphPad Software Inc.), or by an equivalent analytical method, to determine the concentration of each compound which inhibits 50% of cell proliferation (EC50).
By way of example, the cytotoxic properties of several compounds of the invention evaluated on the HCT116 line (human colon cancer cell line) are reported in Table 1.

[2] = test system: MDA-MB-231 human tumor xenograft; experiment: Antitumor activity, subcutaneous MDA-MB-231 breast cancer xenografts in SCID mice; format: in vivo; conditions: for Activity: q1d5 × 3, MDA-MB-231; for Deaths (%): q1d5 × 3, SCID mice
Method: Subcutaneous xenografts were established with MDA-MD-231 breast cancer cells (ATCC: HTB-26) in SCID mice (Harlan, U.K.). The animals were treated and cared after in accordance with the Guide For the Care and Use of Laboratory Animals (National Research Council, 1996) and with European Directive 86/609/EEC, under the supervision of a staff expert authorized to conduct experimental studies with laboratory animals.
All the experiments were conducted pursuant to French and local regulations (Department of Veterinary Services, Haute-Garonne, Toulouse) according to the directives of an ethics committee, based on the UKCCCR Guidelines for the Welfare of Animals in Experimental Neoplasia, as indicated above. The implantation of MDA-MB-231 human tumor fragments is carried subcutaneously in the flanks of SCID mice using a trocar and, for the study of tumor growth, the tumors are allowed to reach a median volume of 70-130 mm^3 before starting the studies.
After randomization in the treatment cages, the inhibitors were administered intravenously according to a g1d5×3 treatment scheme (5 injections per week for 3 weeks). The mice were monitored and weighed daily. The tumors were measured with a slide caliper and the tumor volumes (mm^3) were estimated using the following formula: volume=0.5 (length×width^2). Each experimental group consists of 5 individuals. The efficacy of the treatment was evaluated by analysis of the measurement of the median volume of the treated tumors compared with the median volume of the tumors receiving only carrier (control). The T/C evaluation criterion corresponds to: [(median volume of the treated group, T/median volume of the control group, C)×100]. This T/C ratio is expressed as a percentage. The optimal T/C value corresponds to the ratio which reflects the maximum inhibition of growth obtained during the study. The maximum gains or losses of weight, expressed as a percentage of the initial weight of the animals, as well as the percentage of drug-related deaths (i.e., the percentage of treated animals that died before the assessment) were used to provide an evaluation of the toxicity of the compounds. In accordance with the NCI (National Cancer Institute) criterion, a dose is deemed toxic if it induces weight loss greater than −20% relative to the initial weight of the mouse or if it induces more than 20% deaths (Corbett et al. J Exp Ther Oncol 1996, 1:95-108).

[3] = HCT-116, HCT116, 72 hours after addition, ATPLite
[4] = Mus musculus, MDA-MB-231, iv, read-out: Opt. T/C (%)

COC(=O)[C@H]1[C@@H](O)[C@@]2(O)c3c(OC)cc(OCCCCN)cc3O[C@@]2(c2ccc(OC)cc2)[C@@H]1c1ccccc1 (racemic) [Compound 8, rac-(1R,2R,3S,3aR,8bS)-methyl 6-(4-aminobutoxy)-1,8b-dihydroxy-8-methoxy-3a-(4-methoxyphenyl)-3-phenyl-2,3,3a,8b-tetrahydro-1H-cyclopenta[b]benzofuran-2-carboxylate]
EC50 ([1]; HCT-116, 72 h): 2.61 nM

CN[C@H]1[C@@H](O)[C@@]2(O)c3c(OC)cc(OC)cc3O[C@@]2(c2ccc(OC)cc2)[C@@H]1c1ccccc1 (racemic) [Compound 15, rac-(1R,2R,3R,3aR,8bS)-6,8-dimethoxy-3a-(4-methoxyphenyl)-2-(methylamino)-3-phenyl-1,2,3,3a-tetrahydro-8bH-cyclopenta[b]benzofuran-1,8b-diol]
EC50 [1, 3]: 3.83 nM

COc1ccc([C@@]23Oc4cc(OC)cc(OC)c4[C@]2(O)[C@H](O)[C@H](c2nnc(N)o2)[C@H]3c2ccccc2)cc1 (racemic) [Compound 18, rac-(1R,2R,3S,3aR,8bS)-2-(5-amino-1,3,4-oxadiazol-2-yl)-6,8-dimethoxy-3a-(4-methoxyphenyl)-3-phenyl-2,3,3a,8b-tetrahydro-1H-cyclopenta[b]benzofuran-1,8b-diol]
Activity ([2]; 2.5 mg/kg intravenously): Active
Deaths (%) ([2]; 2.5 mg/kg intravenously): 0%
Activity ([2]; 3.5 mg/kg intravenously): Active
Deaths (%) ([2]; 3.5 mg/kg intravenously): 0%
response vs control in vivo at 2.5 mg/kg [2, 4]: 40%
response vs control in vivo at 3.5 mg/kg [2, 4]: 6%

COc1ccc([C@@]23Oc4cc(OCCN(C)C)cc(OC)c4[C@]2(O)[C@H](O)[C@H](c2nnc(N)o2)[C@H]3c2ccccc2)cc1 (racemic) [Compound 21, rac-(1R,2R,3S,3aR,8bS)-2-(5-amino-1,3,4-oxadiazol-2-yl)-6-(2-(dimethylamino)ethoxy)-8-methoxy-3a-(4-methoxyphenyl)-3-phenyl-2,3,3a,8b-tetrahydro-1H-cyclopenta[b]benzofuran-1,8b-diol]
Activity ([2]; 1 mg/kg intravenously): Active
Deaths (%) ([2]; 1 mg/kg intravenously): 0%
response vs control in vivo at 1 mg/kg [2, 4]: 22%

COc1ccc([C@@]23Oc4cc(OCCN5CCN(C)CC5)cc(OC)c4[C@]2(O)[C@H](O)[C@H](c2nnc(N)o2)[C@H]3c2ccccc2)cc1 (racemic) [Compound 22, rac-(1R,2R,3S,3aR,8bS)-2-(5-amino-1,3,4-oxadiazol-2-yl)-8-methoxy-3a-(4-methoxyphenyl)-6-(2-(4-methylpiperazin-1-yl)ethoxy)-3-phenyl-2,3,3a,8b-tetrahydro-1H-cyclopenta[b]benzofuran-1,8b-diol]
Activity ([2]; 1.4 mg/kg intravenously): Active
Deaths (%) ([2]; 1.4 mg/kg intravenously): 0%
response vs control in vivo at 1.4 mg/kg [2, 4]: 21%

CNc1nnc([C@H]2[C@@H](O)[C@@]3(O)c4c(OC)cc(OC)cc4O[C@@]3(c3ccc(OC)cc3)[C@@H]2c2ccccc2)o1 (racemic) [Compound 24, rac-(1R,2R,3S,3aR,8bS)-6,8-dimethoxy-3a-(4-methoxyphenyl)-2-(5-(methylamino)-1,3,4-oxadiazol-2-yl)-3-phenyl-2,3,3a,8b-tetrahydro-1H-cyclopenta[b]benzofuran-1,8b-diol]
Activity ([2]; 2.8 mg/kg intravenously): Active
Deaths (%) ([2]; 2.8 mg/kg intravenously): 0%
response vs control in vivo at 2.8 mg/kg [2, 4]: 25%

COc1ccc([C@@]23Oc4cc(OC)cc(OC)c4[C@]2(O)[C@H](O)[C@H](c2nnc(C)[nH]2)[C@H]3c2ccccc2)cc1 (racemic) [Compound 30, rac-(1R,2S,3S,3aR,8bS)-6,8-dimethoxy-3a-(4-methoxyphenyl)-2-(5-methyl-4H-1,2,4-triazol-3-yl)-3-phenyl-2,3,3a,8b-tetrahydro-1H-cyclopenta[b]benzofuran-1,8b-diol]
Activity ([2]; 0.7 mg/kg intravenously): Active
Deaths (%) ([2]; 0.7 mg/kg intravenously): 0%
response vs control in vivo at 0.7 mg/kg [2, 4]: 15%

COc1ccc([C@@]23Oc4cc(OC)cc(OC)c4[C@]2(O)[C@@H]2OC(=O)N[C@@H]2[C@H]3c2ccccc2)cc1 (racemic) [Compound 40, rac-(3aR,4R,4aR,9bS,9cR)-9b-hydroxy-7,9-dimethoxy-4a-(4-methoxyphenyl)-4-phenyl-3,3a,4,4a,9b,9c-hexahydro-2H-benzofuro[3′,2′:3,4]cyclopenta[1,2-d]oxazol-2-one]
EC50 [1, 3]: 2.52 nM

COc1ccc([C@@]23Oc4cc(OCCCC(O)CO)cc(OC)c4[C@]2(O)[C@@H]2OC(=O)N[C@@H]2[C@H]3c2ccccc2)cc1 (mixture of isomers) [Compound 41, rac-(3aR,4R,4aR,9bS,9cR)-7-((4,5-dihydroxypentyl)oxy)-9b-hydroxy-9-methoxy-4a-(4-methoxyphenyl)-4-phenyl-3,3a,4,4a,9b,9c-hexahydro-2H-benzofuro[3′,2′:3,4]cyclopenta[1,2-d]oxazol-2-one]
EC50 [1, 3]: 4.2 nM

COc1ccc([C@@]23Oc4cc(OCCCCO)cc(OC)c4[C@]2(O)[C@@H]2OC(=O)N[C@@H]2[C@H]3c2ccccc2)cc1 (racemic) [Compound 42, rac-(3aR,4R,4aR,9bS,9cR)-9b-hydroxy-7-(4-hydroxybutoxy)-9-methoxy-4a-(4-methoxyphenyl)-4-phenyl-3,3a,4,4a,9b,9c-hexahydro-2H-benzofuro[3′,2′:3,4]cyclopenta[1,2-d]oxazol-2-one]
EC50 [1, 3]: 2.16 nM

COc1ccc([C@@]23Oc4cc(OC)cc(OC)c4[C@]2(O)[C@@H]2OC(N)=N[C@@H]2[C@H]3c2ccccc2)cc1 (racemic) [Compound 47, rac-(3aR,4R,4aR,9bS,9cR)-2-amino-7,9-dimethoxy-4a-(4-methoxyphenyl)-4-phenyl-4,4a,9b,9c-tetrahydro-3aH-benzofuro[3′,2′:3,4]cyclopenta[1,2-d]oxazol-9b-ol]
EC50 [1, 3]: 1.1 nM

COC(=O)[C@H]1[C@@H](O)[C@@]2(O)c3c(OC)cc(OCCCCN(C)C)cc3O[C@@]2(c2ccc(OC)cc2)[C@@H]1c1ccccc1 (racemic) [Compound 52, rac-methyl (1R,2R,3S,3aR,8bS)-6-(4-(dimethylamino)butoxy)-1,8b-dihydroxy-8-methoxy-3a-(4-methoxyphenyl)-3-phenyl-2,3,3a,8b-tetrahydro-1H-cyclopenta[b]benzofuran-2-carboxylate]
EC50 [1, 3]: 4.9 nM

COc1ccc([C@@]23Oc4cc(OC)cc(OC)c4[C@]2(O)[C@H](O)[C@H](c2nnc(N)o2)[C@H]3c2ccccc2)cc1 [Compound 19, (1R,2R,3S,3aR,8bS)-2-(5-amino-1,3,4-oxadiazol-2-yl)-6,8-dimethoxy-3a-(4-methoxyphenyl)-3-phenyl-2,3,3a,8b-tetrahydro-1H-cyclopenta[b]benzofuran-1,8b-diol]
Activity ([2]; 1.3 mg/kg intravenously): Active
Deaths (%) ([2]; 1.3 mg/kg intravenously): 0%
response vs control in vivo at 1.3 mg/kg [2, 4]: 26%

COC(=O)[C@H]1[C@@H](O)[C@@]2(O)c3c(OC)cc(OCCCCN)cc3O[C@@]2(c2ccc(OC)cc2)[C@@H]1c1ccccc1 [Compound 50, methyl (1R,2R,3S,3aR,8bS)-6-(4-aminobutoxy)-1,8b-dihydroxy-8-methoxy-3a-(4-methoxyphenyl)-3-phenyl-2,3,3a,8b-tetrahydro-1H-cyclopenta[b]benzofuran-2-carboxylate]
EC50 ([1]; HCT-116, 72 h): 1.22 nM
